Laboratory results: patent US7167801B2, “Method of identifying potential inhibitors of human papillomavirus protein E2 using x-ray atomic coordinates” (Boehringer Ingelheim (Canada) Ltd., priority 2001, dated 2007)

Columns and labels:
[1] = target: T1, SV40 T Antigen (TAg)-origin complex (Simian virus 40, UniProt P03070); experiment: SV40 T Antigen-DNA binding assay (counterscreen); type: biochemical; settings: assay of Example 7, counterscreen
T1 construct: The Large T Antigen: Purchased from Chimerx, at 2.0 mg/mL; purchased Chimerx
T1 sequence (P03070 whole entry, one chain of several): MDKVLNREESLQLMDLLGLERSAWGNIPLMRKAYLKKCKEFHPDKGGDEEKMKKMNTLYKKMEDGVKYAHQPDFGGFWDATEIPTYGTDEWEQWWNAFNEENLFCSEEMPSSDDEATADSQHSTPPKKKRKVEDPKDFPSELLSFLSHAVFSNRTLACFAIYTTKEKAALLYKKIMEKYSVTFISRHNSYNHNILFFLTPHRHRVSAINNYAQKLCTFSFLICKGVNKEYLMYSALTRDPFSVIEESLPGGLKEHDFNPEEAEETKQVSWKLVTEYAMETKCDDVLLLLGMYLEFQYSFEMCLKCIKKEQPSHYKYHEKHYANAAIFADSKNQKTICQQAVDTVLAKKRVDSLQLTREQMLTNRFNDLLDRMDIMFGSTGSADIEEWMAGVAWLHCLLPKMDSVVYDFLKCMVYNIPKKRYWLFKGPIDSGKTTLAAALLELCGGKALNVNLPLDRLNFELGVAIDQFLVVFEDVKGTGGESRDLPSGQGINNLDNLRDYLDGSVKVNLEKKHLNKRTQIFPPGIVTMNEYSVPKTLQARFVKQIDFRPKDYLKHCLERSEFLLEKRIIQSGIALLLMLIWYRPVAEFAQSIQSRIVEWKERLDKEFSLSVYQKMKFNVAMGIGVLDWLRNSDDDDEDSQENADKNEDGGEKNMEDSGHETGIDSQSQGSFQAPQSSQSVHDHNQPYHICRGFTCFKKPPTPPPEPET
Description: SV40 T Antigen-DNA Binding Assay
This assay measures the formation of an SV40 T Antigen (TAg)-origin complex. The assay was developed by R. D. G. McKay (J. Mol. Biol. (1981) 145, 471–488). In principle, it is very similar to the E2-dependent E1-DNA binding assay (Example 6), with TAg replacing E1 and E2, and a radiolabeled SV40 ori probe replacing the HPV ori probe. The assay is used as a counterscreen for the assay of Example 6, since TAg shares functional homology to E1 and E2, but has very low sequence similarity.
The radiolabeled ori-containing DNA probe was made by PCR using pCH110 plasmid (Pharmacia) as a template. This template encodes the SV40 minimal origin of replication at nucleotides 7098-7023. Primers were “sv40-6958sens”=5′-GCCCCTAACTCCGCCCATCCCGC (SEQ ID NO. 7), and “sv40-206anti”=5′-ACCAGACCGCCACGGCTTACGGC (SEQ ID NO. 8). The PCR product was approximately 370 base pairs long and was radiolabeled using 50 μCi/100 μL PCR reaction of dCTP (α-^33P). […]
The protein-DNA complexes were immunocaptured using an α-TAg monoclonal antibody (PAb 101, subtype IgG2a, hybridoma obtained from ATCC and antibody purified in-house) bound to protein A-SPA beads. […] The plates were spun briefly and the precipitated radiolabeled DNA fragments were counted on a TopCount® counter.

[2] = target: HPV-11 E2 (E2-dependent binding of E1 to the HPV-11 origin of replication) (Human papillomavirus 11, UniProt P04015); experiment: E2-dependent E1 origin-binding assay; type: biochemical; settings: assay of Example 6; read-out: IC50 (inhibitory activity)
HPV-11 E2 (E2-dependent binding of E1 to the HPV-11 origin of replication), sequence (P04015 whole entry): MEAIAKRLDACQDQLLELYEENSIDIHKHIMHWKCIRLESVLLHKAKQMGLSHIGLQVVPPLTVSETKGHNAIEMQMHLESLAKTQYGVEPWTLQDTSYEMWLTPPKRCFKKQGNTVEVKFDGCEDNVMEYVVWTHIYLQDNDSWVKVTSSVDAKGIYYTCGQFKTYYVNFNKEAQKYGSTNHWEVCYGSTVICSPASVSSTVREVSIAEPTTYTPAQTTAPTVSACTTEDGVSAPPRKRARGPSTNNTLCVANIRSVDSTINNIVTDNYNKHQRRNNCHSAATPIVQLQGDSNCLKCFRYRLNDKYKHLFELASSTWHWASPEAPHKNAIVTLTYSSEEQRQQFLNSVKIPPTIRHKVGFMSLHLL
Description: E2-Dependent E1 Origin-Binding Assay
This assay was modeled on a similar assay for SV40 T Antigen described by McKay (J. Mol. Biol., 1981,145:471). A 400 bp radiolabeled DNA probe, containing the HPV-11 origin of replication (Chiang et al., 1992, Proc. Natl. Acad. Sci. USA 89:5799) was produced by PCR, using plasmid pBluescript™ SK encoding the origin (nucleotides 7886-61 of the HPV-11 genome in unique BAMH1 site) as template and primers flanking the origin. Radiolabel was incorporated as [^33P]dCTP. Binding assay buffer consisted of: 20 mM Tris pH 7.6, 100 mM NaCl, 1 mM DTT, 1 mM EDTA.
Other reagents used were protein A-SPA beads (type II, Amersham) and K72 rabbit polyclonal antiserum, raised against a peptide corresponding to the C-terminal 14 amino acids of HPV-11 E1. Following the protocol from Amersham, one bottle of beads was mixed with 25 mL of binding assay buffer. For the assay, a saturating amount of K72 antiserum was added to the beads and the mixture was incubated for 1 h, washed with one volume of binding assay buffer, and then resuspended in the same volume of fresh binding assay buffer. […] After an additional hour of incubation at room temperature, the reactions were centrifuged briefly to pellet the beads and the extent of complex formation was determined by scintillation counting on a Packard TopCount™. […]

Compound: Cc1ccc2c(c1)C(=O)[C@]1(O[C@@H](c3ccc(Cl)c(Cl)c3)[C@@H](C(=O)Nc3ccc(-c4csnn4)cc3)[C@H]1C(=O)[O-])C2=O.[Na+] (racemic) [Compound L]
- Selectivity: activity in the SV40 large T antigen assay [1]: lack of activity (or lower potency)
- IC50 [2]: 180 nM
